Results on one compound are retold here after US9616033B2, “Selective metabolic approach to increasing oral bioavailability of phenylephrine and other phenolic bioactivities” (VIRGINIA COMMONWEALTH UNIVERSITY, priority 2011, dated 2017).

Test [1] deals with human LS180 intestinal cells. The test can be described thus: Inhibition of phenylephrine (PE) metabolism (PE disappearance) in LS180 cells. The following applies: Homo sapiens, LS180 cells. Format: cell-based. The procedure:
The inhibitors which can be used in the practice of the invention are wide ranging. […] The LS180 model provides an inexpensive method to imitate the human intestine, with regards to PE metabolism. […] For the LS180 experiments, LS180 cells are seeded at the concentration of 1.9×10^5 cells/ml in 12-well plate. […] After incubation, medium is removed and stored at −80° C. until analysis. The metabolic reactions are quenched by placing 12-well plate on ice and quickly rinsing each well. The cell extraction of metabolites is carried out with 1 ml 2% acetic acid solution in methanol. Cells are scraped and collected in centrifuge tubes. The suspension is mixed for 2-3 min and centrifuged at 18,000 rcf for 5 min. Supernatants (800 μl) are collected. After scraping, each well is washed twice as above. The washing solution is collected with the supernatant and dried under reduced pressure. The residue is re-suspended in 35 μl water and analyzed by HPLC. […] The data are processed with one-way ANOVA followed by Dunnett's post test; * indicates p<0.05.
Phenolic compounds were selected from FDA's “GRAS” list, approved food additives, or dietary supplements. LS180 cells were used as a model to test the effect of these phenolic compounds on the pre-systemic sulfation of PE. The cells were incubated in 0.5 ml medium with PE (50 μM)±inhibitor (100 μM) overnight. Extracellular buffer was collected and cells were extracted with methanol. PE was determined by reversed-phase HPLC with fluorescence detection. The formation of PE-sulfate was analyzed by LC-MS/MS. Results (n=3 per group) were analyzed by one-way ANOVA with Dunnett's post-test (p<0.05; Prism 5).

Test [2] relates to human LS180 intestinal cells. The test can be described thus: Inhibition of PE sulfate formation in LS180 cells. Format: cell-based. The following applies: PE 50 μM ± inhibitor 100 μM, overnight, LC-MS/MS, read-out: PE-sulfate formation inhibited to (control=100%). The text has this: The inhibitors which can be used in the practice of the invention are wide ranging. Tables 1 and 2 show results with a number of different compounds which can function as inhibitors of SULT, MAO, CYP, COMT or UGT enzymes, or which otherwise may be used to increase the bioavailability of the exemplary bioactive phenylephrine. […] In Tables 1 and 2, human LS180 intestinal cells were used for screening the inhibition of PE metabolism. For the experiment which produced the results in Table 1, the concentration of PE was […]; the concentration of vitamin C (where present) was 1 mM; the total concentration of other inhibitors was 100 μM. Cells were incubated at 37° C. for 14 to 17.5 hours, as indicated. […] The residue is re-suspended in 35 μl water and analyzed by HPLC. All the samples are analyzed for PE by HPLC with a phenyl column (150×3.2 mm, 5 μm, 55° C.) at the flow rate of […] (20% methanol and 80% (aqueous 1% acetic acid)) and detected by fluorescence (excitation 270 nm, emission 305 nm). […]
Phenolic compounds were selected from FDA's “GRAS” list, approved food additives, or dietary supplements. […] PE was determined by reversed-phase HPLC with fluorescence detection. The formation of PE-sulfate was analyzed by LC-MS/MS. Results (n=3 per group) were analyzed by one-way ANOVA with Dunnett's post-test (p<0.05; Prism 5).

The structures appear in SMILES notation.

As to `COc1ccccc1O` [guaiacol], the activity at 100 µM stood at 51 ± 14% in test [1] (PE 50 μM ± inhibitor 100 μM, overnight, n=3, control=503±127 pmol/hr, read-out: extent of disappearance of PE (mean±SD, as % of control)); 51.3% in test [1] (PE 50 μM, inhibitors total 100 μM, incubation 18.5 hr, read-out: Extent of PE Disappearance (as % of control)); 33 ± 7% in test [2].
